Data: publication PMC11201061, “Mechanistic Study of Antimicrobial Effectiveness of Cyclic Amphipathic Peptide [R4W4] against Methicillin-Resistant Staphylococcus aureus Clinical Isolates” (Antibiotics, 2024)
≈ marks a conversion by molar mass, not a printed value.

What was measured:
[1] = test system: MRSA USA300; assay: Checkered board synergy assay with gentamicin; assay type: cell-based, Staphylococcus aureus
Experimental: (§1) An amount of 100 µL of [R4W4] peptide test solution at a final concentration of 512 µg/mL was added to each well A-G column 1 in plate A using a multi-channel pipette. A 50 µL MH Broth was added to micro-plate well A-G columns 2–9. Using a multi-channel pipette, a two-fold serial dilution was performed by removing 50 µL solution from column 1 and was added to column 2 with thorough mixing. The micro-pipette was discarded after each transfer. The last portion after column 9 was discarded. In another microplate, 100 µL MHB was added to well B-G columns 1–11 using a multi-channel pipette. A 200 µL gentamicin test solution 512 µg/mL was added to row A, columns 1–11. A two-fold serial dilution was performed by removing 100 µL from rows A to B. The last portion was discarded. Using eight multi-channel pipettes, 50 µL of gentamicin test solution was transferred in the ordinate column A-G row 1 to the first microplate. The plate was incubated at 37 °C for 18–24 h. The fractional inhibitory concentration (FIC) of the antibacterial agents and the fractional inhibitory concentration index (FICI) of the two antibacterial agents were determined to evaluate the synergistic interaction. The FICI was interpreted as follows: FICI ≤ 0.5, synergy; 0.5 < FICI ≤ 1, partial synergy; 1 ≤ FICI < 4, additive effect or indifference; 4 ≤ FICI antagonism and calculated from the mean values from multiple experiments.

[2] = test system: E. coli 25922; assay: Checkered board synergy assay with gentamicin; assay type: cell-based, Escherichia coli
Experimental: as §1

[3] = test system: MRSA USA300; assay: microbe, parasite or virus in culture
Experimental: MRSA USA300 bacteria from −80 °C freezer stock were cultured on an LB agar plate overnight. One bacteria colony was added to a 6 mL fresh MHB with constant shaking at 200 rpm at 37 °C. The bacteria were transferred daily by inoculating 10 μL of stationary-phase culture into […] of MHB in a 1 mL cap-clipped Eppendorf tube. Then, 20 μL of bacteria aliquot was added to […] of MHB broth, with or without [R4W4], at a final concentration of the MIC overnight in an […] at 37 °C for five transfers. […] […] Experiments were performed in triplicates. Every time we increased the concentration of [R4W4], a sample of the induction generation was inoculated into 20% (vol/vol) glycerol and stored at −70 °C. The final MIC values of [R4W4], vancomycin, and levofloxacin were determined by modified microbroth dilution assay.

[4] = test system: MRSA USA300; assay: microbe, parasite or virus in culture; details: MRSA USA300, overnight 37 °C, duplicate
Experimental: The interaction of [R4W4], melittin, and vancomycin with LTA in the presence of MRSA was determined using a microbroth dilution assay. Two-fold serial dilution was used to achieve a 100 μL final concentration of the antibacterial agents in a 96 microplate well. A 360 μL S. aureus LTA (Sigma Aldrich stock 5 mg/mL) was added to 17.64 mL MHB containing MRSA (5 x 10^5 CFU/mL) to achieve the final concentration of S. aureus LTA 100 μg/mL. Then, 100 μL aliquots of MHB (MRSA (5 × 10^5 CFU/mL) and 100 μg/mL S. aureus LTA) were added to the 96 microtiter wells containing the antibacterial agents. The microplate was incubated overnight at 37 °C to obtain the MICs. Controls were bacteria grown in the presence of LTA alone and in MHB alone.

CNC(C)C1CCC(N)C(OC2C(N)CC(N)C(OC3OCC(C)(O)C(NC)C3O)C2O)O1 (stereo not shown) [Gentamicin, gentamicin, reference compound]
MIC(B+A) (gentamicin in combination with [R4W4]) ([1]; MRSA USA300, checkered board): 0.05 µg/mL | MICB (gentamicin alone) ([1]; MRSA USA300, checkered board): 0.09 µg/mL | FICB ([1]; MRSA USA300, fractional inhibitory concentration of gentamicin): 0.56 | reduction in MIC value in combination ([1]; MRSA, [R4W4] + gentamicin combination versus alone): ~ 2 fold | MIC(B+A) (gentamicin in combination with [R4W4]) ([2]; E. coli 25922, checkered board): 0.19 µg/mL | MICB (gentamicin alone) ([2]; E. coli 25922, checkered board): 0.75 µg/mL | FICB ([2]; E. coli 25922, fractional inhibitory concentration of gentamicin): 0.25 | reduction in MIC value in combination ([2]; E. coli, [R4W4] + gentamicin combination versus alone): approximately 4 fold

C[C@H]1COc2c(N3CCN(C)CC3)c(F)cc3c(=O)c(C(=O)O)cn1c23 [levofloxacin, Levofloxacin]
MIC against index isolate (no serial passage) ([3]; MRSA USA300 index strain, MIC in duplicate): 1 µg/mL (≈ 2.77 µM) | change in MIC after serial passage ([3]; MRSA USA300 passaged versus index strain): 2 folds | MIC ([3]; Staphylococcus aureus, MRSA|USA300, read-out: MIC against serial passaged [R4W4]-resistant isolate): 2 µg/mL (≈ 5.53 µM)

CC[C@H](C)[C@H](NC(=O)CN)C(=O)NCC(=O)N[C@@H](C)C(=O)N[C@H](C(=O)N[C@@H](CC(C)C)C(=O)N[C@@H](CCCCN)C(=O)N[C@H](C(=O)N[C@@H](CC(C)C)C(=O)N[C@H](C(=O)N[C@H](C(=O)NCC(=O)N[C@@H](CC(C)C)C(=O)N1CCC[C@H]1C(=O)N[C@@H](C)C(=O)N[C@@H](CC(C)C)C(=O)N[C@H](C(=O)N[C@@H](CO)C(=O)N[C@@H](Cc1c[nH]c2ccccc12)C(=O)N[C@H](C(=O)N[C@@H](CCCCN)C(=O)N[C@@H](CCCNC(=N)N)C(=O)N[C@@H](CCCCN)C(=O)N[C@@H](CCCNC(=N)N)C(=O)N[C@@H](CCC(N)=O)C(=O)N[C@@H](CCC(N)=O)C(N)=O)[C@@H](C)CC)[C@@H](C)CC)[C@@H](C)O)[C@@H](C)O)C(C)C)C(C)C [melittin, reference compound]
MIC in the presence of LTA ([4]; 100 μg/mL S. aureus LTA in MHB): 32 µg/mL | MIC in the absence of LTA ([4]; MHB): 8 µg/mL
